According to patent US12544371B2, “Methods and compositions for treating acute lung injury and acute respiratory distress syndrome” (CalciMedica, Inc., priority 2020, dated 2026):

Experiment: Phase 2 trial in severe COVID-19 pneumonia, interim results
Format: in vivo, human
Settings: for Difference (Compound 1 − Standard Care), estimated mean of ordinal scale: MMRM; for Difference (Compound 1 − Standard Care), ordinal scale, sensitivity analysis: three patients with PaO2/FiO2<100 removed
Protocol: A phase 2 clinical trial is performed to evaluate Compound 1 in patients with severe COVID-19 pneumonia. The study will investigate the use of Compound 1 in patients with severe COVID-19 pneumonia who are at risk for progression to acute respiratory distress syndrome (ARDS).
Compound 1 Dose and Route of Administration: 2.0 mg/kg of an injectable emulsion of Compound 1 will be administered at 0 hour and 1.6 mg/kg will be administered at both 24 hours and 48 hours from the Start of the First Infusion of Study Drug (SFISD).
Study Design: In this randomized controlled open-label stage study, 60 patients who meet all of the inclusion criteria and none of the exclusion criteria will be randomized 2:1 to receive Compound 1 or continue with the local standard of care. The dose of Compound 1 will be 2.0 mg/kg of Compound 1 administered at 0 hour, and 1.6 mg/kg at 24 hours and 1.6 mg/kg at 48 hours. The SFISD should occur within 8 hours of the patient or LAR providing informed consent. The dosing will be based on actual body weight obtained at the time of hospitalization or screening for the study. A study physician or appropriately trained delegate will perform assessments at screening, immediately prior to the SFISD, and immediately prior to each subsequent infusion. At 72 hours after the SFISD, the patient will be assessed every 24 hours (±4 hours) until Day 30 after the SFISD, or until discharge if earlier. Patients who are discharged before Day 25 after the SFISD will be contacted at Day 30 (±5 days) and Day 60 (+5 days) for a safety and mortality assessment. Patients randomized to receive local standard of care will not have blood samples drawn for PK assessments.
Interim results for the phase 2 trial have been obtained, as follows. 18 patients with severe COVID-19 pneumonia have been enrolled, in which 12 treated have been treated with an injectable emulsion of Compound 1, and 6 have received the standard of care. 3 sites are currently enrolling patients. 11 of the enrolled patients are at site 1 (8 treated and 3 SOC), 3 are at site 2 (1 treated and 2 SOC), and 4 are at site 3 (3 treated and 1 SOC). The subjects with severe COVID-19 were those that necessitated low-flow oxygen treatment.
Compound 1 in Severe COVID-19 Pneumonia: Time to Hospital Discharge. One subject in standard care group was discharged with low flow treatment and is considered as censored at discharge instead of out of hospital. 3 patients who died were censored at Day 30. […] Similar improvements would be expected upon treatment with other intracellular Calcium signaling inhibitors or CRAC inhibitors.
Compound 1 in Severe COVID-19 Pneumonia: Ordinal Scale Analysis. The data in are based on an MMRM model and missing at random assumption. The ordinal scale was as follows: 1. Death 2. Hospitalized, on invasive mechanical ventilation or ECMO 3. Hospitalized, on non-invasive ventilation or high flow oxygen devices 4. Hospitalized, requiring low flow supplemental oxygen 5. Hospitalized, not requiring supplemental oxygen—requiring ongoing medical care (coronavirus (e.g. COVID-19) related or otherwise) 6. Hospitalized, not requiring supplemental oxygen—no longer requires ongoing medical care (other than per protocol study drug administration) 7. Not hospitalized. […] Similar improvements would be expected upon treatment with other intracellular Calcium signaling inhibitors or CRAC inhibitors.

Cc1cccc(F)c1C(=O)Nc1cnc(-c2cc3c(cc2Cl)OC(F)(F)O3)cn1 [Compound 1, N-(5-(6-Chloro-2,2-difluorobenzo[d][1,3]dioxol-5-yl)pyrazin-2-yl)-2-fluoro-6-methylbenzamide]
Difference (Compound 1 − Standard Care), estimated mean of ordinal scale (Study Day 0): 0.00 | Difference (Compound 1 − Standard Care), ordinal scale, sensitivity analysis (Study Day 0): 0.00 | Difference (Compound 1 − Standard Care), estimated mean of ordinal scale (Study Day 1): 0.75 | Difference (Compound 1 − Standard Care), ordinal scale, sensitivity analysis (Study Day 1): 0.70 | Difference (Compound 1 − Standard Care), estimated mean of ordinal scale (Study Day 2): 0.83 | Difference (Compound 1 − Standard Care), ordinal scale, sensitivity analysis (Study Day 2): 0.80 | Difference (Compound 1 − Standard Care), estimated mean of ordinal scale (Study Day 3): 1.17 | Difference (Compound 1 − Standard Care), ordinal scale, sensitivity analysis (Study Day 3): 1.10 | Difference (Compound 1 − Standard Care), estimated mean of ordinal scale (Study Day 4): 1.73 | Difference (Compound 1 − Standard Care), ordinal scale, sensitivity analysis (Study Day 4): 1.76 | Difference (Compound 1 − Standard Care), estimated mean of ordinal scale (Study Day 5): 1.87 | Difference (Compound 1 − Standard Care), ordinal scale, sensitivity analysis (Study Day 5): 2.02 | Difference (Compound 1 − Standard Care), estimated mean of ordinal scale (Study Day 6): 2.04 | Difference (Compound 1 − Standard Care), ordinal scale, sensitivity analysis (Study Day 6): 2.23 | Difference (Compound 1 − Standard Care), estimated mean of ordinal scale (Study Day 7): 1.30 | Difference (Compound 1 − Standard Care), ordinal scale, sensitivity analysis (Study Day 7): 1.79 | Difference (Compound 1 − Standard Care), estimated mean of ordinal scale (Study Day 8): 1.39 | Difference (Compound 1 − Standard Care), ordinal scale, sensitivity analysis (Study Day 8): 1.89 | Difference (Compound 1 − Standard Care), estimated mean of ordinal scale (Study Day 9): 1.48 | Difference (Compound 1 − Standard Care), ordinal scale, sensitivity analysis (Study Day 9): 1.90 | Difference (Compound 1 − Standard Care), estimated mean of ordinal scale (Study Day 10): 1.21 | Difference (Compound 1 − Standard Care), ordinal scale, sensitivity analysis (Study Day 10): 1.81 | Difference (Compound 1 − Standard Care), estimated mean of ordinal scale (Study Day 12): 1.31 | Difference (Compound 1 − Standard Care), ordinal scale, sensitivity analysis (Study Day 12): 1.81 | Difference (Compound 1 − Standard Care), estimated mean of ordinal scale (Study Day 14): 1.05 | Difference (Compound 1 − Standard Care), ordinal scale, sensitivity analysis (Study Day 14): 2.07 | Difference (Compound 1 − Standard Care), ordinal scale, sensitivity analysis (Study Day 16): 1.82 | Difference (Compound 1 − Standard Care), ordinal scale, sensitivity analysis (Study Day 18): 1.83 | ordinal scale (7-point) (interim): improvement | Subjects out of hospital (interim, 9/12 subjects): 9/12 (75%) | PaO2/FiO2 (interim, following administration): increased | probability of being at a hospital over time (interim, versus standard care): lower probability of being at a hospital over time | KM estimate of number of days in hospital, median (interim, 95% CI (4 days, na)): 5.5 days (4 days, na)
